Some test systems named below: HOP-62; T47D; HCC 2998; MDA-MB-231; RXF 393; NCI/ADR-RES; SK-MEL-28; COLO 205; SN12C; SW-620; SK-MEL-5; A549; A498; SNB-75; NCI-H23; SK-OV-3; UACC-62; NCI-H460; MOLT-4; RPMI-8226.
Test in all cases: DTP human tumour cell line panel, 48 h

Consider seven compounds from ChEMBL document CHEMBL1201862, “PubChem BioAssay data set” (2004).

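Cultured in 96-well plates, cells were exposed to test compound for 48 hours across five concentrations. GI50: concentration for 50% inhibition of growth.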 Activity calls are given as the source filed them. No stated cut-off is given here; in the data, active = GI50 up to about 1.1 µM and inactive = higher.

The term GI50 denotes the concentration giving 50% growth inhibition.

`CCCCCC(=O)OC[n+]1ccc(-c2c(COC(=O)NC(C)C)c(COC(=O)NC(C)C)c3n2CCC3)cc1`: the GI50 in the experiment with HOP-62, with T47D, in the experiment with HCC 2998, with MDA-MB-231, in the experiment with RXF 393 and with NCI/ADR-RES was > 100 µM (inactive) throughout. For the same compound, the GI50 with SK-MEL-28, with COLO 205, in the experiment on SN12C, with SW-620, in the experiment on SK-MEL-5 and in the experiment with A549 was > 100 µM (inactive) each time. The GI50 with A498 was > 100 µM (inactive); in the experiment on SNB-75, > 100 µM (inactive); with NCI-H23 it was > 100 µM (inactive); in the experiment with SK-OV-3, > 100 µM (inactive); in the experiment on UACC-62, 26.5 µM (inactive); in the experiment with NCI-H460, 72.3 µM (inactive). Moreover, the GI50 in the experiment on MOLT-4 is 35.9 µM (inactive); in the experiment on RPMI-8226, > 100 µM (inactive).
As to `CC(C)(C)[C@H]1CCC2(OCCO2)[C@](O)(CCCO)C1`, the GI50 in the experiment with HOP-62, with T47D, in the experiment with HCC 2998, in the experiment on MDA-MB-231, with RXF 393 and with NCI/ADR-RES was > 100 µM (inactive) in each case. In addition, the GI50 in the experiment with SK-MEL-28, with COLO 205, in the experiment on SN12C, in the experiment on SW-620, with SK-MEL-5 and with A549 was > 100 µM (inactive) each time. Further, the GI50 with A498, in the experiment with SNB-75, in the experiment with NCI-H23, with SK-OV-3, in the experiment on UACC-62 and in the experiment on NCI-H460 was > 100 µM (inactive) throughout. Moreover, the GI50 in the experiment on MOLT-4 and in the experiment with RPMI-8226 was > 100 µM (inactive) each time.
Turning to `C/C(=N\NC(N)=S)C(CN1CCCCC1)C(C1=C(O)c2ccccc2OC1)c1ccccc1` (stereo not given), the GI50 in the experiment on HOP-62 was 41 µM (inactive); with T47D it was 79.6 µM (inactive); with HCC 2998, > 100 µM (inactive); in the experiment on MDA-MB-231, > 100 µM (inactive); in the experiment with RXF 393, > 100 µM (inactive); in the experiment on NCI/ADR-RES, > 100 µM (inactive). Also, the GI50 in the experiment with SK-MEL-28, in the experiment on COLO 205, in the experiment on SN12C, with SW-620, in the experiment on SK-MEL-5 and with A549 was > 100 µM (inactive) in each case. In addition, the GI50 in the experiment on A498, with SNB-75, in the experiment with NCI-H23, in the experiment with SK-OV-3, in the experiment on UACC-62 and in the experiment with NCI-H460 was > 100 µM (inactive) throughout. The GI50 in the experiment with MOLT-4 is 64 µM (inactive); with RPMI-8226 it was 35.2 µM (inactive).
Take `CCOC(=O)C12CC(C)=C(C)CC1CCCc1ccccc12` (stereo not given): the GI50 in the experiment on HOP-62 is 38.3 µM (inactive); in the experiment on T47D, 15 µM (inactive); in the experiment on HCC 2998 it was 14.2 µM (inactive); in the experiment on MDA-MB-231, 14.2 µM (inactive); in the experiment on RXF 393, 18.7 µM (inactive); in the experiment with NCI/ADR-RES, 39.4 µM (inactive). Besides, the GI50 with SK-MEL-28 was 30.8 µM (inactive); in the experiment with COLO 205, 16.6 µM (inactive); in the experiment with SN12C, 23.4 µM (inactive); in the experiment on SW-620 it was 20.8 µM (inactive); in the experiment with SK-MEL-5, 21.5 µM (inactive); in the experiment with A549, 32.7 µM (inactive). For the same compound, the GI50 in the experiment on A498 is 23 µM (inactive); with SNB-75, 28.8 µM (inactive); with NCI-H23, 28.4 µM (inactive); with SK-OV-3 it was 32 µM (inactive); in the experiment with UACC-62, 21.9 µM (inactive); in the experiment on NCI-H460 it was 16.4 µM (inactive). The GI50 in the experiment on MOLT-4 was 18 µM (inactive); in the experiment on RPMI-8226, 12.5 µM (inactive).
Turning to `COc1ccc2nc3c([N+](=O)[O-])ccc4c3c(c2c1)N(CCCN(C)C)C(=S)N4CCCN(C)C`, the GI50 is 5.19 µM (inactive) in the experiment on HOP-62; 20.5 µM (inactive) in the experiment with T47D; 2.9 µM (inactive) in the experiment with HCC 2998; 7.28 µM (inactive) in the experiment on MDA-MB-231; 9.53 µM (inactive) in the experiment on RXF 393; 6.62 µM (inactive) with NCI/ADR-RES. Moreover, the GI50 in the experiment on SK-MEL-28 was 18.1 µM (inactive); with COLO 205, 1.54 µM (inactive); in the experiment with SN12C, 5.11 µM (inactive); with SW-620, 2.62 µM (inactive); in the experiment on SK-MEL-5, 4.94 µM (inactive); in the experiment on A549, 5.45 µM (inactive). Besides, the GI50 was 17.7 µM (inactive) with A498; 8.41 µM (inactive) with SNB-75; 8.97 µM (inactive) with NCI-H23; 12.6 µM (inactive) in the experiment on SK-OV-3; 16 µM (inactive) in the experiment with UACC-62; 2.7 µM (inactive) in the experiment on NCI-H460. The GI50 is 3.5 µM (inactive) in the experiment on MOLT-4 and 5.51 µM (inactive) in the experiment on RPMI-8226.
Turning to `CC(NC(NC(C)C12CC3CC(CC(C3)C1)C2)=C(C(Cl)=C(Cl)Cl)[N+](=O)[O-])C12CC3CC(CC(C3)C1)C2` (stereo not given), the GI50 with HOP-62 is 32.7 µM (inactive); with T47D, 20.4 µM (inactive); in the experiment on HCC 2998, 23.4 µM (inactive); with MDA-MB-231 it was 4.5 µM (inactive); with RXF 393, 13 µM (inactive); in the experiment with NCI/ADR-RES, 12 µM (inactive). In addition, the GI50 was 26.4 µM (inactive) with SK-MEL-28; 8.51 µM (inactive) in the experiment on COLO 205; 7.59 µM (inactive) in the experiment with SN12C; 17.6 µM (inactive) in the experiment with SW-620; 13.2 µM (inactive) with SK-MEL-5; 6.31 µM (inactive) in the experiment on A549. The GI50 with A498 is 36.1 µM (inactive); in the experiment on SNB-75, 43.4 µM (inactive); in the experiment on NCI-H23, 7.96 µM (inactive); in the experiment with SK-OV-3, 71.1 µM (inactive); in the experiment on UACC-62 it was 30 µM (inactive); in the experiment with NCI-H460, 4.36 µM (inactive). Further, the GI50 was 19.5 µM (inactive) in the experiment with MOLT-4 and > 36.7 µM (inactive) in the experiment with RPMI-8226.
`CC(=O)O[C@H]1C(=O)[C@@]2(C)[C@H]([C@H](OC(=O)c3ccccc3)[C@]3(O)C[C@H](OC(=O)[C@H](O)[C@@H](NC(=O)CC(C)(C)C)c4ccccc4)C(C)=C1C3(C)C)C1(OC(C)=O)CO[C@@H]1C[C@@H]2O` (stereo not given in full): the GI50 in the experiment on HOP-62 was 0.00671 µM (active); in the experiment on T47D it was 0.00908 µM (active); in the experiment with HCC 2998, 0.00231 µM (active); in the experiment with MDA-MB-231 it was > 10 µM (inactive); with RXF 393, 0.00796 µM (active); in the experiment on NCI/ADR-RES it was 4.26 µM (inactive). Besides, the GI50 in the experiment on SK-MEL-28 was < 0.001 µM (active); in the experiment on COLO 205 it was 0.0014 µM (active); in the experiment with SN12C, 0.00287 µM (active); with SW-620 it was 0.00171 µM (active); in the experiment with SK-MEL-5 it was 0.00213 µM (active); in the experiment on A549, 0.00371 µM (active). Besides, the GI50 is 0.303 µM (active) with A498; < 0.001 µM (active) with SNB-75; 0.00237 µM (active) in the experiment with NCI-H23; 0.00171 µM (active) in the experiment on SK-OV-3; 0.00158 µM (active) in the experiment on UACC-62; 0.00235 µM (active) with NCI-H460. The GI50 in the experiment with MOLT-4 is 0.00296 µM (active); in the experiment with RPMI-8226, < 0.001 µM (active).
